Reference: ChEMBL document CHEMBL1201862, “PubChem BioAssay data set” (2004)
Activity calls are given as the source filed them.

Tests used:
[1] = inhibitors of HIV Env-driven cell fusion, dose response, cherry-pick (AID 652057); type: functional, cell-based
[2] = CEM21 lymphoblast cell cytotoxicity, dose response, cytotoxicity control for viral fusion inhibitor project, CellTiter-Glo luminescence, cherry-picked (AID 652042); type: functional, cell-based;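 also: potency for signal decrease meaning cytotoxicity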
[3] = ZM109 Env clade C HIV-1 fusion inhibitors, dose response, HeLa effector, CEM target cells, luciferase, cherry-pick (AID 652058); type: functional, cell-based
[4] = inhibitors of clade B AD8 Env fusion, dose response, cell-based, cherry-pick (AID 652062); type: functional;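 also: luciferase signal from cell-cell fusion driven by HIV-1 clade B AD8 Env; potency is for inhibitors of fusion seen as a drop in luminescence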
[5] = inhibitors of intracellular T. cruzi replication, confirmation, NIH3T3 host cells, beta-gal luminescence (AID 2044); type: functional, cell-based;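 also: intracellular parasites grown in NIH/3T3 mouse fibroblasts as host cells; luminescent beta-galactosidase reporter signal from transgenic T. cruzi replicating inside host cells; inhibitors lower the luminescence signal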
[6] = cytotoxicity toward NIH3T3 fibroblasts, dose response, counter-screen, cell-based, ATP luminescence, mouse fibroblasts (AID 2010); type: functional;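 also: cells exposed to compound for about 90 hours before reading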
[7] = molecular target: Fructose-bisphosphate aldolase (Mycobacterium tuberculosis, UniProt P9WQA3); test: Fluorescence-based biochemical high throughput dose response assay for inhibitors of the fructose-bisphosphate aldolase (FBA) of M. tuberculosis.; type: functional
Chain of Fructose-bisphosphate aldolase (P9WQA3 whole entry): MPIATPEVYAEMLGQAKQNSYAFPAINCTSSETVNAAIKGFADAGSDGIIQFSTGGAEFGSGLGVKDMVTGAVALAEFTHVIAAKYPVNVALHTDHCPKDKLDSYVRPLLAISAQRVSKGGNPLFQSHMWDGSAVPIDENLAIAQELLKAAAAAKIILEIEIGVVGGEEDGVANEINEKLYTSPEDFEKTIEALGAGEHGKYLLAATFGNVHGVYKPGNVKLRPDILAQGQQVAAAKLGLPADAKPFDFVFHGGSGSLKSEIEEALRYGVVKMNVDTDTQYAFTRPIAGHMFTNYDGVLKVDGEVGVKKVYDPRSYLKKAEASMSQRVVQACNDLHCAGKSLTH

Protein Tat = Protein Tat (Human immunodeficiency virus type 1 group M subtype B (isolate HXB2)(HIV-1), UniProt P04608); type: functional;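 also: tat binding to TAR RNA read out by fluorescence polarization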
Chain of Protein Tat (P04608 whole entry): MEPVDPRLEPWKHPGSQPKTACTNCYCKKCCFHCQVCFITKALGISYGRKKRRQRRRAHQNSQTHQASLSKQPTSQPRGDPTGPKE

cells [8] = type: functional, cell-based
[9] = molecular target: T1, Trace amine-associated receptor 1 (Homo sapiens, UniProt Q96RJ0); test: Fluorescence-based cell-based high throughput dose response assay to identify agonists of the human trace amine associated receptor 1 (TAAR1).; type: functional
T1 sequence (Q96RJ0 whole entry): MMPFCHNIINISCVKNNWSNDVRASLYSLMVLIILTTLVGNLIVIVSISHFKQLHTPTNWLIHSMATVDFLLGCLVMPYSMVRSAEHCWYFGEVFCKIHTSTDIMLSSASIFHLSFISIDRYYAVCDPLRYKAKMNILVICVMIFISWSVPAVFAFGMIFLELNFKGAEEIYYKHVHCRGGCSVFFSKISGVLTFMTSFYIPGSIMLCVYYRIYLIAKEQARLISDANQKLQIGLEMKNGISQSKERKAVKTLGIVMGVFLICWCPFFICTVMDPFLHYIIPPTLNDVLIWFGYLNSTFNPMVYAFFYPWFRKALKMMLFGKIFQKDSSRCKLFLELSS

[10] = molecular target: T1, Trace amine-associated receptor 1; test: Counterscreen for agonists of the human trace amine associated receptor 1 (hTAAR1): Fluorescence-based cell-based high throughput dose response assay to identify hTAAR1 agonist that also desensitize TAAR1 receptor response.; type: functional
cells [11] = type: functional, cell-based; remark: listed apart in the source
Cryptococcus neoformans = test: PubChem AID 686997; type: functional, organism-based
HeLa = test: HeLa cell cytotoxicity, dose response, cytotoxicity control, ATP luminescence, cherry-pick samples (AID 687004); type: functional, cell-based; conditions: Homo sapiens
HepG2 = test: HepG2 Cytotoxicity Assay Measured in Cell-Based System Using Plate Reader - 7071-02_Inhibitor_Dose_CherryPick_Activity.; type: functional; conditions: Homo sapiens
[12] = Shn3 3'UTR reporter inhibitors, dose response, cell-based, Clone20 osteoblasts, firefly luciferase, cherry-picked (AID 624132); type: functional;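 also: firefly luciferase luminescence from reporter carrying the Shn3 3'UTR in osteoblasts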
[13] = HepG2 cell cytotoxicity, dose response, cytotoxicity control for Shn3 inhibitor project, CellTiter-Glo, cherry-picked (AID 624134); type: functional, cell-based
[14] = control 3'UTR Renilla luciferase suppression, dose response, counter-screen for Shn3 inhibitor project, cell-based, Clone20-Shn3RL, cherry-picked (AID 624133); type: functional
[15] = reduction of Shn3 3'UTR firefly luciferase signal, dose response, Schnurri-3 inhibitor project, cell-based, Clone20 osteoblasts, cherry-pick, set 2 (AID 720490); type: functional;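 also: actives lower the luminescence signal as inhibitors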
[16] = inhibitors of control Renilla luciferase reporter, dose response, counter-screen for Shn3 3'UTR targeting project, Clone20-Shn3RL cells, dual-Glo, cherry-pick, set 2 (AID 720724); type: functional, cell-based; conditions: Dual-Go Shn3RL

Cc1nc2ccc(NC(=O)c3ccc(Cl)c(S(=O)(=O)N(C)c4ccccc4)c3)cc2s1
AC50 [1]: 35.5 µM (active)
AC50 [2]: 58.6 µM (active)
AC50 [3]: 3.88 µM (active)
AC50 [4]: 3.19 µM (active)

Cc1c(C(=O)Nc2ccc(Cl)cc2)c2ccccn2c1CCc1ccncc1
EC50 [5]: 2.16 µM (active)
EC50 [6]: > 30 µM (not active)
IC50 [7]: 0.468 µM (active)
IC50 (Protein Tat): > 100 µM (active)

CCC(C)(C)n1nnnc1C(c1ccc(O)cc1)N1CCc2ccccc2C1 (stereo not given)
IC50 (cells [8]): > 29.9 µM (inactive)
EC50 [9]: 0.333 µM (active)
IC50 [10]: 1.26 µM (active)
EC50 (cells [11]): > 29.9 µM (inactive)

CCOC(=O)NC(=S)Nc1ccc(C(C)(C)C)cc1Br
AC50 (Cryptococcus neoformans): > 70 µM (inactive)
AC50 (HeLa): > 52 µM (inactive)
AC50 (HepG2): 18.1 µM (active)

Cc1nc(NC(C)c2ccccc2)c2oc3ccccc3c2n1 (stereo not given)
AC50 [12]: 3.06 µM (active)
AC50 [13]: 35.1 µM (active)
AC50 [14]: 24 µM (active)
AC50 [15]: 3.44 µM (active)
AC50 [16]: 46.5 µM (active)
